The values that follow come from PubChem BioAssay AID1259407 (Chemical Carcinogenesis Research Information System (CCRIS), 2018).

The test system of the series is CCRIS mutagenicity, Ames/micronucleus/aberration tests. As to the kind of experiment: CCRIS mutagenicity studies.
Where [1] appears, read: Test System: AMES SALMONELLA TYPHIMURIUM, Strain/Indicator: TA98, Metabolic Activation: NONE, Method: PREINCUBATION
Where [2] appears, read: Test System: AMES SALMONELLA TYPHIMURIUM, Strain/Indicator: TA100, Metabolic Activation: NONE, Method: PREINCUBATION
Setting [3] is: Test System: AMES SALMONELLA TYPHIMURIUM, Strain/Indicator: TA98, Metabolic Activation: NONE, Method: STANDARD PLATE.
Setting [4] is: Test System: AMES SALMONELLA TYPHIMURIUM, Strain/Indicator: TA100, Metabolic Activation: NONE, Method: STANDARD PLATE.

Molecules are shown by their SMILES. Activity calls are given as the source filed them. How the calls were made is not given here.

As to `O=C(O)c1ccc(/C=C/c2ccc([N+](=O)[O-])o2)cc1`, the mutagenic call is “active; positive” under setting [1]; “active; positive” (Test System: AMES SALMONELLA TYPHIMURIUM, Strain/Indicator: TA98, Metabolic Activation: RAT, LIVER, S-9, PCB, Method: PREINCUBATION); “active; positive” under setting [2]; “active; positive” (Test System: AMES SALMONELLA TYPHIMURIUM, Strain/Indicator: TA100, Metabolic Activation: RAT, LIVER, S-9, PCB, Method: PREINCUBATION).

With `CC(=O)OCc1ccccc1N=Nc1ccc(N(C)C)cc1`, the mutagenic call by setting is: (Test System: AMES SALMONELLA TYPHIMURIUM, Strain/Indicator: TA98, Metabolic Activation: RAT, LIVER, S-9, POLYCHLORINATED BIPHENYLS, Method: PREINCUBATION) “active; positive”; (Test System: AMES SALMONELLA TYPHIMURIUM, Strain/Indicator: TA100, Metabolic Activation: RAT, LIVER, S-9, POLYCHLORINATED BIPHENYLS, Method: PREINCUBATION) “active; positive”.

Turning to `C1=Cc2c3cc4ccccc4cc3cc3cccc1c23`, the mutagenic call runs as follows: under setting [3], “active; positive”; (Test System: AMES SALMONELLA TYPHIMURIUM, Strain/Indicator: TA98, Metabolic Activation: RAT, LIVER, S-9, AROCLOR 1254 (0.127 OR 1.27 MG S-9 PROTEIN), Method: STANDARD PLATE) “active; positive”.

Take `CNC(=O)Oc1cccc2c1OC(C)(C)C2O` (stereo unspecified): the mutagenic call (End Point: IN VIVO MICRONUCLEUS, Test System: BONE MARROW POLYCHROMATIC ERYTHROCYTES, Species: MOUSE, Strain/Sex: KM/MALE, FEMALE, Route: IP INJECTION) is “active; positive”.

Consider `CC(C)(C#N)C(C)(C)C#N`, for which the mutagenic call (Test System: AMES SALMONELLA TYPHIMURIUM, Strain/Indicator: TA97, Metabolic Activation: HAMSTER, LIVER, S-9, AROCLOR 1254 (10 OR 30%), Method: PREINCUBATION) is “inactive; negative”; the mutagenic call (Test System: AMES SALMONELLA TYPHIMURIUM, Strain/Indicator: TA97, Metabolic Activation: NONE, Method: PREINCUBATION) was “inactive; negative”; the mutagenic call (Test System: AMES SALMONELLA TYPHIMURIUM, Strain/Indicator: TA97, Metabolic Activation: RAT, LIVER, S-9, AROCLOR 1254 (10 OR 30%), Method: PREINCUBATION) is “inactive; negative”; the mutagenic call (Test System: AMES SALMONELLA TYPHIMURIUM, Strain/Indicator: TA97, Method: PREINCUBATION) is “inactive; negative”; the mutagenic call (Test System: AMES SALMONELLA TYPHIMURIUM, Strain/Indicator: TA98, Metabolic Activation: HAMSTER, LIVER, S-9, AROCLOR 1254 (10 OR 30%), Method: PREINCUBATION) is “inactive; negative”; the mutagenic call (Test System: AMES SALMONELLA TYPHIMURIUM, Strain/Indicator: TA98, Metabolic Activation: HAMSTER, LIVER, S-9, AROCLOR 1254, Method: STANDARD PLATE) is “inactive; negative”. Moreover, the mutagenic call by setting is: under setting [1], “inactive; negative”; under setting [3], “inactive; negative”; (Test System: AMES SALMONELLA TYPHIMURIUM, Strain/Indicator: TA98, Metabolic Activation: RAT, LIVER, S-9, AROCLOR 1254 (10 OR 30%), Method: PREINCUBATION) “inactive; negative”; (Test System: AMES SALMONELLA TYPHIMURIUM, Strain/Indicator: TA98, Metabolic Activation: RAT, LIVER, S-9, AROCLOR 1254, Method: STANDARD PLATE) “inactive; negative”; (Test System: AMES SALMONELLA TYPHIMURIUM, Strain/Indicator: TA98, Method: PREINCUBATION) “inactive; negative”; (Test System: AMES SALMONELLA TYPHIMURIUM, Strain/Indicator: TA100, Metabolic Activation: HAMSTER, LIVER, S-9, AROCLOR 1254 (10 OR 30%), Method: PREINCUBATION) “inactive; negative”. Further, the mutagenic call is “inactive; negative” (Test System: AMES SALMONELLA TYPHIMURIUM, Strain/Indicator: TA100, Metabolic Activation: HAMSTER, LIVER, S-9, AROCLOR 1254, Method: STANDARD PLATE); “inactive; negative” under setting [2]; “inactive; negative” under setting [4]; “inactive; negative” (Test System: AMES SALMONELLA TYPHIMURIUM, Strain/Indicator: TA100, Metabolic Activation: RAT, LIVER, S-9, AROCLOR 1254 (10 OR 30%), Method: PREINCUBATION); “inactive; negative” (Test System: AMES SALMONELLA TYPHIMURIUM, Strain/Indicator: TA100, Metabolic Activation: RAT, LIVER, S-9, AROCLOR 1254, Method: STANDARD PLATE); “inactive; negative” (Test System: AMES SALMONELLA TYPHIMURIUM, Strain/Indicator: TA100, Method: PREINCUBATION). Further, the mutagenic call is “inactive; negative” (Test System: AMES SALMONELLA TYPHIMURIUM, Strain/Indicator: TA102, Metabolic Activation: NONE, Method: PREINCUBATION); “inactive; negative” (Test System: AMES SALMONELLA TYPHIMURIUM, Strain/Indicator: TA102, Method: PREINCUBATION); “inactive; negative” (Test System: AMES SALMONELLA TYPHIMURIUM, Strain/Indicator: TA1535, Metabolic Activation: HAMSTER, LIVER, S-9, AROCLOR 1254 (10 OR 30%), Method: PREINCUBATION); “inactive; negative” (Test System: AMES SALMONELLA TYPHIMURIUM, Strain/Indicator: TA1535, Metabolic Activation: HAMSTER, LIVER, S-9, AROCLOR 1254, Method: STANDARD PLATE); “inactive; negative” (Test System: AMES SALMONELLA TYPHIMURIUM, Strain/Indicator: TA1535, Metabolic Activation: NONE, Method: PREINCUBATION); “inactive; negative” (Test System: AMES SALMONELLA TYPHIMURIUM, Strain/Indicator: TA1535, Metabolic Activation: NONE, Method: STANDARD PLATE). Besides, the mutagenic call runs as follows: (Test System: AMES SALMONELLA TYPHIMURIUM, Strain/Indicator: TA1535, Metabolic Activation: RAT, LIVER, S-9, AROCLOR 1254 (10 OR 30%), Method: PREINCUBATION) “inactive; negative”; (Test System: AMES SALMONELLA TYPHIMURIUM, Strain/Indicator: TA1535, Metabolic Activation: RAT, LIVER, S-9, AROCLOR 1254, Method: STANDARD PLATE) “inactive; negative”; (Test System: AMES SALMONELLA TYPHIMURIUM, Strain/Indicator: TA1537, Metabolic Activation: NONE, Method: STANDARD PLATE) “inactive; negative”; (Test System: AMES SALMONELLA TYPHIMURIUM, Strain/Indicator: TA1537, Metabolic Activation: RAT, LIVER, S-9, AROCLOR 1254, Method: STANDARD PLATE) “inactive; negative”; (Test System: AMES SALMONELLA TYPHIMURIUM, Strain/Indicator: TA1538, Metabolic Activation: HAMSTER, LIVER, S-9, AROCLOR 1254, Method: STANDARD PLATE) “inactive; negative”; (Test System: AMES SALMONELLA TYPHIMURIUM, Strain/Indicator: TA1538, Metabolic Activation: NONE, Method: STANDARD PLATE) “inactive; negative”. For the same compound, the mutagenic call runs as follows: (Test System: AMES SALMONELLA TYPHIMURIUM, Strain/Indicator: TA1538, Metabolic Activation: RAT, LIVER, S-9, AROCLOR 1254, Method: STANDARD PLATE) “inactive; negative”; (Test System: MOUSE LYMPHOMA, Strain/Indicator: L5178Y (TK+/TK-), Metabolic Activation: NONE, Method: SUSPENSION/PLATE) “inactive; negative. reevaluation of results: negative”; (Test System: MOUSE LYMPHOMA, Strain/Indicator: L5178Y (TK+/TK-), Metabolic Activation: RAT, LIVER, S-9, AROCLOR 1254, Method: SUSPENSION/PLATE) “inactive; negative. reevaluation of results: negative”.

Consider `Nc1nc(N)nc(Cl)n1`, for which the mutagenic call reads like this: (Test System: AMES SALMONELLA TYPHIMURIUM, Strain/Indicator: TA97, Metabolic Activation: NONE, Method: STANDARD PLATE) “inactive; negative”; under setting [3], “inactive; negative”; under setting [4], “inactive; negative”.

`OC1c2cccc3ccc4cccc1c4c23`: the mutagenic call (Test System: AMES SALMONELLA TYPHIMURIUM, Strain/Indicator: TA98, Metabolic Activation: HUMAN, LIVER, CYTOSOL, PAPS, Method: PREINCUBATION) was “inactive; negative”.
